# In patent US12520844B2 (Bayer Aktiengesellschaft, priority 2020, dated 2026):
# Assay: Measurement of Log P values by HPLC on reversed phase columns (EEC directive 79/831 Annex V.A8)
# Format: physicochemical
# Description: Measurement of Log P values as provided herein was performed according to EEC directive 79/831 Annex V.A8 by HPLC (High Performance Liquid Chromatography) on reversed phase columns with the following methods: • ^[a] Log P value is determined by measurement of LC-UV, in an acidic range, with 0.1% formic acid in water and acetonitrile as eluent (linear gradient from 10% acetonitrile to 95% acetonitrile). • ^[b] Log P value is determined by measurement of LC-UV, in a neutral range, with 0.001 molar ammonium acetate solution in water and acetonitrile as eluent (linear gradient from 10% acetonitrile to 95% acetonitrile). • ^[c] Log P value is determined by measurement of LC-UV, in an acidic range, with 0.1% phosphoric acid and acetonitrile as eluent (linear gradient from 10% acetonitrile to 95% acetonitrile).
# If more than one Log P value is available within the same method, all the values are given and separated by “+”.
# Calibration was done with straight-chain alkan2-ones (with 3 to 16 carbon atoms) with known Log P values (measurement of Log P values using retention times with linear interpolation between successive alkanones). Lambda-max-values were determined using UV-spectra from 200 nm to 400 nm and the peak values of the chromatographic signals
Compound,LogP,chromatographic logP
Cc1ccc(C(F)=CNC(=O)c2nc(C3CC3)nnc2Oc2cccc(Br)c2)c(C)c1 [Compound I-132],4.97^[a],–
Cc1ncc(Oc2cccc(C3CC3)c2F)c(C(=O)NC2CCCc3cc(Br)ccc32)n1 (stereo not shown) [Compound I-069],4.71^[a],–
COc1cccc(Oc2cnc(C)nc2C(=O)NCC(F)(F)c2ccc(C)cc2C)c1F [Compound I-084],3.71^[a],–
CCON(Cc1ccccc1)C(=O)c1nc(C)ncc1Oc1cccc(C2CC2)c1F [Compound I-123],3.97^[a],–
Cc1ncc(Oc2cccc(C3CC3)c2F)c(C(=O)NC2CCCc3ccc(Cl)cc32)n1 (stereo not shown) [Compound I-114],4.46^[a],–
Cc1cccc(Oc2cnc(C)nc2C(=O)NCC(F)(F)c2ccc(C)cc2C)c1 [Compound I-033],4.06^[a],–
Cc1ncc(Oc2cccc(C3CC3)c2F)c(C(=O)NCCc2cccc3[nH]ccc23)n1 [Compound I-042],3.23^[a],–
Cc1ncc(Oc2cccc(C3CC3)c2F)c(C(=O)NC2CC23CCc2cc(Br)ccc23)n1 (mixture of isomers) [Compound I-091],4.73^[a],–
CCOC(=O)c1nc(C2CC2)nnc1Oc1cccc(C2CC2)c1F [Compound 1-08],4.19^[a],–
Cc1ccc(/C(F)=C/NC(=O)c2nc(C3CC3)nnc2Oc2cccc(C)c2F)c(C)c1 [Compound I-107],4.85^[a],–
Cc1ccc(/C(F)=C/NC(=O)c2nc(C3CC3)nnc2Oc2cccc(C3CC3)c2F)c(C)c1 [Compound I-112],5.20^[a],–
Cc1ncc(Oc2cccc(C3CC3)c2F)c(C(=O)NCCn2cc(Cl)cn2)n1 [Compound I-086],2.88^[a],–
Cc1ccc(C(F)(F)CNC(=O)c2nc(C)ncc2Oc2ccc3ccccc3c2)c(C)c1 [Compound I-106],4.35^[a],–
Cc1ccc(C(F)(F)CNC(=O)c2nc(C3CC3)ncc2Oc2cccc(Cl)c2)c(C)c1 [Compound I-014],5.00^[a],–
Cc1ccc(/C(F)=C/NC(=O)c2nc(C3CC3)nnc2Oc2cccc(Cl)c2F)c(C)c1 [Compound I-105],5.36^[a],–
Cc1ccc(C(F)(F)CNC(=O)c2nc(C)ncc2Oc2cccc(C(F)(F)F)c2)c(C)c1 [Compound I-003],4.32^[a],–
Cc1ncc(Oc2cccc(C3CC3)c2F)c(C(=O)NCC(F)c2ccc(C)c(C)c2)n1 (stereo not shown) [Compound I-043],4.22^[a],–
Cc1ccc(C(F)(F)CNC(=O)c2nc(C)ncc2Oc2cccc(C3CC3)c2F)c(C)c1 [Compound I-103],4.44^[a],–
Cc1ncc(Oc2cccc(C3CC3)c2F)c(C(=O)NC(C)c2ccc(Cl)s2)n1 (stereo not shown) [Compound I-076],4.09^[a],–

Compound,LogP,chromatographic logP
Cc1ncc(Oc2cccc(C3CC3)c2F)c(C(=O)N(Cc2ccccc2)OCC(C)C)n1 [Compound I-088],4.72^[a],–
Cc1nnc(Oc2cccc(C3CC3)c2)c(C(=O)NCC(F)(F)c2ccc(Cl)cc2)n1 [Compound I-028],4.01^[a],–
CCC(=O)N(CCc1ccccc1)C(=O)c1nc(C)ncc1Oc1cccc(C2CC2)c1F [Compound I-066],4.52^[a],–
Cc1cnn(CCNC(=O)c2nc(C)ncc2Oc2cccc(C3CC3)c2F)c1 [Compound I-052],2.59^[a],–
CON(CCc1ccc(Cl)cc1Cl)C(=O)c1nc(C)ncc1Oc1cccc(C2CC2)c1F [Compound I-034],4.91^[a],–
COc1ccc2c(c1)C(NC(=O)c1nc(C)ncc1Oc1cccc(C3CC3)c1F)C(OC)CC2 (stereo not shown) [Compound I-060],3.72^[a],–
Cc1ccc(C(F)=CNC(=O)c2nc(C3CC3)nnc2Oc2cccc(Br)c2F)c(C)c1 [Compound I-048],5.04^[a],–
Cc1ncc(Oc2cccc(C3CC3)c2F)c(C(=O)NCCc2cccs2)n1 [Compound I-064],3.43^[a],–
Cc1ncc(Oc2cccc(C3CC3)c2F)c(C(=O)NOCc2ccc(C#N)cc2)n1 [Compound I-097],2.87^[a],–
Cc1ccc(/C(F)=C\NC(=O)c2nc(C3CC3)nnc2Oc2cccc(C3CC3)c2F)c(C)c1 [Compound I-040],5.49^[a],–
CCOC(=O)c1nc(C2CC2)nnc1Oc1cccc(OC)c1 [Compound 1-12],3.37^[a],–
Cc1ncc(Oc2cccc(C3CC3)c2F)c(C(=O)NC2CCSc3ccc(F)cc32)n1 (racemic) [Compound I-125],3.98^[a],–
Cc1ncc(Oc2cccc(C3CC3)c2F)c(C(=O)NOCc2ccc(OC(F)(F)F)cc2)n1 [Compound I-100],3.89^[a],–
COc1ncc(Oc2cccc(C(F)(F)F)c2)c(C(=O)NCC(F)(F)c2ccc(C)cc2C)n1 [Compound I-009],4.46^[a],–
Cc1ccc(C(F)=CNC(=O)c2nc(C3CC3)nnc2Oc2cccc(Br)c2F)c(C)c1 [Compound I-027],5.36^[a],–
Cc1ccc(C(F)(F)CNC(=O)c2nc(C)ncc2Oc2cccc([N+](=O)[O-])c2)c(C)c1 [Compound I-090],3.75^[a],–
Cc1nnc(Oc2cccc(C(F)(F)F)c2)c(C(=O)NCC(F)(F)c2ccc(Cl)cc2)n1 [Compound I-006],3.85^[a],–
CCc1ncc(Oc2cccc(C(F)(F)F)c2)c(C(=O)NCC(F)(F)c2ccc(C)cc2C)n1 [Compound I-011],4.89^[a],–

# Continued, values first:
LogP,chromatographic logP,Compound
4.19^[a],–,Cc1ccc(C(F)(F)CNC(=O)c2nc(C)nnc2Oc2cccc(C3CC3)c2)c(Cl)c1 [Compound I-021]
4.49^[a],–,Cc1ncc(Oc2cccc(C(F)(F)F)c2)c(C(=O)NCC(F)(F)c2ccc(Br)cc2Cl)n1 [Compound I-004]
3.40^[a],–,Cc1ccc(C(F)(F)CNC(=O)c2nc(C)ncc2Oc2cnc3ccccc3c2)c(C)c1 [Compound I-120]
4.33^[a],–,Cc1ccc(C(F)(F)CNC(=O)c2nc(C)nnc2Oc2cccc(C3CC3)c2)c(C)c1 [Compound I-117]
3.32^[a],–,Cc1ccc(C(F)(F)CNC(=O)c2nc(C)ncc2Oc2cccc(C3COC3)c2)c(C)c1 [Compound I-056]
4.54^[a],–,Cc1ccc(C(F)(F)CNC(=O)c2nc(C)ncc2Oc2ccc(C)c(Cl)c2)c(C)c1 [Compound I-093]
3.66^[a],–,COCCOc1cccc(Oc2cnc(C)nc2C(=O)NCC(F)(F)c2ccc(C)cc2C)c1 [Compound I-059]
4.66^[a],–,Cc1ccc(C(F)(F)CNC(=O)c2nc(C3CC3)nnc2Oc2cccc(C(F)(F)F)c2)c(Cl)c1 [Compound I-130]
–,1.69,"Cc1ncc(Oc2cccc(C(F)(F)F)c2)c(C(=O)O)n1 [Compound 1-01, 2-methyl-5-[3-(trifluoromethyl)phenoxy]pyrimidine-4-carboxylic Acid]"
4.19^[a],–,COc1cccc(Oc2nnc(C3CC3)nc2C(=O)NCC(F)(F)c2ccc(C)cc2C)c1 [Compound I-082]
3.40^[a],–,CC(=O)c1cccc(Oc2cnc(C)nc2C(=O)NCC(F)(F)c2ccc(C)cc2C)c1 [Compound I-022]
–,3.25,"Cc1ccc(C(F)(F)CNC(=O)c2nc(C)ncc2Br)c(C)c1 [Compound 3-04, 5-bromo-N-[2-(2,4-dimethylphenyl)-2,2-difluoroethyl]-2-methylpyrimidine-4-carboxamide]"
4.44^[a],–,COc1cccc(Oc2nnc(C3CC3)nc2C(=O)N/C=C(\F)c2ccc(C)cc2C)c1 [Compound I-061]
4.02^[a],–,Cc1ccc(C(F)(F)CNC(=O)c2nc(C)ncc2Oc2cc(F)c(F)cc2F)c(C)c1 [Compound I-026]
4.01^[a],–,COc1ccc(CCN(C(C)=O)C(=O)c2nc(C)ncc2Oc2cccc(C3CC3)c2F)cc1 [Compound I-067]
3.44^[a],–,Cc1ncc(Oc2cccc(C3CC3)c2F)c(C(=O)NCCc2ccc(OC(C)C)nc2)n1 [Compound I-099]
4.52^[a],–,Cc1ncc(Oc2cccc(C3CC3)c2F)c(C(=O)NCCOc2ccc(C(F)(F)F)cc2Cl)n1 [Compound I-081]
4.05^[a],–,Nc1ncc(Oc2cccc(C(F)(F)F)c2)c(C(=O)NCCc2ccc(Br)cc2)n1 [Compound I-095]
4.05^[a],–,CSc1ncc(Br)c(C(=O)NCC(F)(F)c2ccc(C)cc2C)n1 [Compound 3-03]
3.73^[a],–,Cc1ccc(C(F)(F)CNC(=O)c2nc(C)ncc2Oc2cncc(C(F)(F)F)c2)c(C)c1 [Compound I-068]
3.09^[a],–,Cc1ncc(Oc2cccc(C3CC3)c2F)c(C(=O)NCCc2cnc(C(F)(F)F)nc2)n1 [Compound I-032]
4.15^[a],–,Cc1ccc(C(F)(F)CNC(=O)c2nc(C)ncc2Oc2ccc3ccsc3c2)c(C)c1 [Compound I-023]
4.13^[a],–,CCOc1cccc(Oc2cnc(C)nc2C(=O)NCC(F)(F)c2ccc(C)cc2C)c1 [Compound I-047]
4.59^[a],–,Cc1ccc(C(F)(F)CNC(=O)c2nc(C3CC3)nnc2Oc2cccc(Br)c2)c(C)c1 [Compound I-062]
4.62^[a],–,Cc1ccc(C(F)(F)CNC(=O)c2nc(C3CC3)nnc2Oc2cccc(Cl)c2F)c(C)c1 [Compound I-131]
4.72^[a],–,Cc1ccc(C(F)(F)CNC(=O)c2nc(C)ncc2Oc2ccc(Cl)c(C(F)(F)F)c2)c(C)c1 [Compound I-108]
3.98^[a],–,Cc1ccc(C(F)(F)CNC(=O)c2nc(C)ncc2Oc2cccc(OC(F)F)c2)c(C)c1 [Compound I-044]
2.88^[a],–,CC(NC(=O)c1nc(F)ncc1Oc1cccc(C(F)(F)F)c1)c1cccc(C(F)(F)F)c1 (stereo not shown) [Compound I-096]
3.53^[a],–,Cc1ccc(C(F)(F)CNC(=O)c2nc(C)ncc2Oc2cccc(C#N)c2)c(C)c1 [Compound I-079]
4.20^[a],–,Cc1ccc(C(F)(F)CNC(=O)c2nc(C)ncc2Oc2ccc(F)c(Cl)c2)c(C)c1 [Compound I-129]
